“Also recorded” adds a separate entry of the source.
Assays:
His-CRBN/DDB1 = biological target: T1, His-CRBN/DDB1 (Homo sapiens, UniProt Q96SW2); assay: TR-FRET CRBN competitive binding assay (BODIPY FL thalidomide probe); conditions: for CRBN binding (in words): FIG. 9D; for EC50: TR-FRET competitive binding, derived from FIG. 9D, read-out: CRBN Binding EC50 ± SD
T1 construct: made in house; host or cells: Sf9 insect cells (baculovirus)
Protocol: The pFastBacDual-6xHis-CRBN/DDB1 plasmid was cloned by GenScript and used for baculoviral expression of His-CRBN and untagged DDB1. Protein was expressed and purified essentially as described previously. The bacmid was produced in MAX Efficiency DH10Bac Competent Cells (Thermo Fisher Scientific) according to the manufacturer's instructions. To generate the P1 virus, 1×10^6 Sf9 cells were plated in each well of a six-well plate in 2 mL Sf-900 III SFM and transfected with 7 μg bacmid using Cellfectin II reagent (Thermo Fisher Scientific). After 6 h at 27° C., the media was replaced with 2 mL fresh Sf-900 III SFM. After three days, the supernatant was collected, centrifuged at 500×g for 5 min to remove cells and debris, transferred to new tubes, and stored at 4° C. To generate P2 virus, 2 mL P1 virus was added to 1×10^8 Sf9 cells in 50 mL Sf-900 III SFM and shaken at 27° C. for three days. The supernatant was collected and clarified as above. For protein expression, 5 mL P2 virus was added to each liter of Sf cells (2×10^6 cells/mL) and shaken at 27° C. for three days. Cells containing expressed protein were pelleted by centrifugation at 500×g for 5 min, the supernatant was removed, and pellets were stored at −80° C. until processing. […] The suspension was incubated on ice for 1 h, gently sonicated, and centrifuged for 1 h at 40,000×g at 4° C. The supernatant was applied to Ni-NTA Superflow resin (QIAGEN) equilibrated with lysis buffer. The resin was washed with 10 column volumes (CV) of lysis buffer, and proteins were eluted with 10 CV lysis buffer containing 500 mM imidazole. The solution was diluted to 200 mM NaCl using lysis buffer without NaCl and applied to a HiTrap ANX FF (High Sub) column (Cytiva) equilibrated with ANX binding buffer [50 mM Tris (pH 7.5), 200 mM NaCl, 3 mM TCEP]. The column was washed with 10 CV ANX binding buffer followed by 10 CV ANX wash buffer [50 mM Bis-Tris (pH 6.0), 200 mM NaCl, 3 mM TCEP]. A 20 CV linear gradient was then immediately applied from ANX binding buffer to ANX binding buffer containing 1 M NaCl using an AKTA avant chromatography system (Cytiva). The purest fractions were applied to a HiLoad 26/600 Superdex 200 pg size exclusion column equilibrated with 10 mM HEPES (pH 7.0), 240 mM NaCl, and 3 mM TCEP. Pure protein was concentrated to 20-30 mg/mL in Pierce PES Protein Concentrators (Thermo Fisher Scientific), flash frozen in liquid nitrogen, and stored at −80° C.
The assay buffer composition was 50 mM Tris (pH 7.5), 0.1% Triton X-100, 0.01% bovine serum albumin, and 1 mM DTT. […] Lastly, 5 μL/well of 8 nM Tb-anti-His and 8 nM His-CRBN/DDB1 in assay buffer was added. […] The plates were then protected from light exposure and incubated for 60 minutes at room temperature (RT). After incubation, the TR-FRET signal from each well was collected with a PHERAstar FS Microplate Reader (BMG Labtech). The percent inhibition for each well was calculated using equation 2: […]

GSPT1 = biological target: T2, GSPT1 (Homo sapiens, UniProt P15170+Q96SW2); assay: Western blot of GSPT1 protein in SNU—C4 3xFLAG-PXR KI cells; format: cell-based; conditions: for GSPT1 Loss at 10 μM (% ± SD): 10 μM compound, calculated from western blots FIG. 9A; for GSPT1 degradation (in words): western blot, SNU—C4 3xFLAG-PXR KI cells
T2 construct: endogenous in cells
Protocol: (§1) The following day, DMSO or compounds were added to result in 0.5% DMSO and the indicated compound concentrations, and cells were incubated for the indicated time points. Cells were lysed and subjected to western blotting as above using antibodies against FLAG (Sigma-Aldrich, cat. #F3165, 1:2,000 dilution), GSPT1 (Abcam, cat. #ab126090, 1:4,000 dilution), and R-Actin (Cell Signaling Technology, cat. #4967, 1:2,000 dilution).

PXR [1] = biological target: T3, PXR (Homo sapiens, UniProt O75469); assay: cell-based hPXR inverse agonistic assay; conditions: for inhibition at 10 µM: read-out: Inverse agonist (% inhibition at 10 μM); for IC50: read-out: Inverse agonist (IC50/μM)
T3 sequence (O75469 1-434): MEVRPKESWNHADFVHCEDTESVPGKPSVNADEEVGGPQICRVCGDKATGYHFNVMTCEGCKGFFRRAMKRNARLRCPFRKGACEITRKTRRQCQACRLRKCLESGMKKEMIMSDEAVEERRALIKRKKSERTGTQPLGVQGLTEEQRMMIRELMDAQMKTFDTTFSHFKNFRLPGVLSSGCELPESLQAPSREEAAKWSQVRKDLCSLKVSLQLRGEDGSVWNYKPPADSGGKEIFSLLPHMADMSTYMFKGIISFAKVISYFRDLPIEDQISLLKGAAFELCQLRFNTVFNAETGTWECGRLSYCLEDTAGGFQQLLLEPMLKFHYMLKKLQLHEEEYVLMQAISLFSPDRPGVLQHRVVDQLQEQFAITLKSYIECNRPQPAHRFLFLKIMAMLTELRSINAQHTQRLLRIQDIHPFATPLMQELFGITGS

PXR [2] = biological target: T3, PXR; assay: cell-based hPXR antagonistic assay; conditions: for inhibition at 10 µM: read-out: Antagonist (% inhibition at 10 μM); for IC50: read-out: Antagonist (IC50/μM)
PXR [3] = biological target: T3, PXR; assay: hPXR binding assay
PXR [4] = biological target: T3, PXR; assay: cell-based hPXR agonistic assay; conditions: 10 μM; rifampicin at 10 μM as 100% activation, DMSO (0.3%) as 0%
PXR [5] = biological target: T3, PXR; assay: Western blot of endogenous 3xFLAG-PXR protein in SNU—C4 3xFLAG-PXR KI cells; format: cell-based; set-up: To assess SJPYT-195 activity against endogenous PXR, CRISPR-Cas9 was used; endogenous in cells; conditions: western blot, SNU—C4 3xFLAG-PXR KI cells
Protocol: as §1

SMILES | CRBN binding (in words) (His-CRBN/DDB1) | GSPT1 Loss at 10 μM (% ± SD) (GSPT1) | GSPT1 degradation (in words) (GSPT1) | inhibition at 10 µM (PXR [1]) | IC50 (PXR [1]) | inhibition at 10 µM (PXR [2]) | IC50 (PXR [2]) | other results
COc1ccc(OC)c(-n2nnc(C(=O)Nc3cc(OCCNc4cccc5c4C(=O)N(C4CCC(=O)NC4=O)C5=O)cc(C(C)(C)C)c3)c2C)c1 (centres unmarked) [Compound M10, N-(3-(tert-butyl)-5-(2-((2-(2,6-dioxopiperidin-3-yl)-1,3-dioxoisoindolin-4-yl)amino)ethoxy)phenyl)-1-(2,5-dimethoxyphenyl)-5-methyl-1H-1,2,3-triazole-4-carboxamide] | retained strong binding of CRBN | 72 ± 2.3% | strong GSPT1 degradation | 128% | 0.042 ± 0.0085 µM | 102% | 0.23 ± 0.023 µM | 
COc1ccc(OC)c(-n2nnc(C(=O)Nc3cc(NCCNc4cccc5c4C(=O)N(C4CCC(=O)NC4=O)C5=O)cc(C(C)(C)C)c3)c2C)c1 (centres unmarked) [Compound M11, N-(3-(tert-butyl)-5-((2-((2-(2,6-dioxopiperidin-3-yl)-1,3-dioxoisoindolin-4-yl)amino)ethyl)amino)phenyl)-1-(2,5-dimethoxyphenyl)-5-methyl-1H-1,2,3-triazole-4-carboxamide] | retained strong binding of CRBN | 63 ± 13% | strong GSPT1 degradation | 135% | 0.0079 µM | 109% | 0.026 ± 0.0008 µM | IC50 (PXR [3]): 0.67 ± 0.014 µM; inhibition at 10 µM (PXR [3]; read-out: Binding (% inhibition at 10 μM)): 61%
COc1ccc(OC)c(-n2nnc(C(=O)Nc3cc(NC(=O)CNc4cccc5c4C(=O)N(C4CCC(=O)NC4=O)C5=O)cc(C(C)(C)C)c3)c2C)c1 (centres unmarked) [Compound M8, N-(3-(tert-butyl)-5-(2-((2-(2,6-dioxopiperidin-3-yl)-1,3-dioxoisoindolin-4-yl)amino)acetamido)phenyl)-1-(2,5-dimethoxyphenyl)-5-methyl-1H-1,2,3-triazole-4-carboxamide] | retained strong binding of CRBN | 89 ± 3.1% | strong GSPT1 degradation | 19% | 13.2 ± 1.28 µM |  |  | 
COc1ccc(OC)c(-n2nnc(C(=O)Nc3cc(OCCCCCCCCN4C(=O)CCC(N5C(=O)c6cccc(N)c6C5=O)C4=O)cc(C(C)(C)C)c3)c2C)c1 (centres unmarked) [Compound N5, N-(3-((8-(3-(4-amino-1,3-dioxoisoindolin-2-yl)-2,6-dioxopiperidin-1-yl)octyl)oxy)-5-(tert-butyl)phenyl)-1-(2,5-dimethoxyphenyl)-5-methyl-1H-1,2,3-triazole-4-carboxamide] |  |  |  |  |  |  |  | Agonist (% activation at 10 μM) (PXR [4]): (81 ± 5)%
COc1ccc(OC)c(-n2nnc(C(=O)Nc3cc(OC(=O)CNc4cccc5c4C(=O)N(C4CCC(=O)NC4=O)C5=O)cc(C(C)(C)C)c3)c2C)c1 (centres unmarked) [Compound M7, 3-(tert-butyl)-5-(1-(2,5-dimethoxyphenyl)-5-methyl-1H-1,2,3-triazole-4-carboxamido)phenyl (2-(2,6-dioxopiperidin-3-yl)-1,3-dioxoisoindolin-4-yl)glycinate] | retained strong binding of CRBN | 46 ± 1.5% | only weakly degraded GSPT1 | 103% | 0.2 ± 0.038 µM | 71% | 1.38 ± 0.47 µM | 
CO[C@H]1/C=C/O[C@@]2(C)Oc3c(C)c(O)c4c(O)c(c(/C=N/N5CCN(C)CC5)c(O)c4c3C2=O)NC(=O)/C(C)=C\C=C\[C@H](C)[C@H](O)[C@@H](C)[C@@H](O)[C@@H](C)[C@H](OC(C)=O)[C@@H]1C [Rifampicin, reference compound] |  |  |  |  |  |  |  | Agonist (% activation at 10 μM) (PXR [4]): (100 ± 2)%
COc1ccc(OC)c(-n2nnc(C(=O)Nc3cc(OCC(=O)Nc4cccc5c4C(=O)N(C4CCC(=O)NC4=O)C5=O)cc(C(C)(C)C)c3)c2C)c1 (centres unmarked) [Compound M9, N-(3-(tert-butyl)-5-(2-((2-(2,6-dioxopiperidin-3-yl)-1,3-dioxoisoindolin-4-yl)amino)-2-oxoethoxy)phenyl)-1-(2,5-dimethoxyphenyl)-5-methyl-1H-1,2,3-triazole-4-carboxamide] | greatly reduced CRBN binding | 20 ± 4.8% |  |  |  |  |  | EC50 (His-CRBN/DDB1): > 333 nM
CC(C)(C)c1cc(N)cc(Oc2cccc3c2C(=O)N(C2CCC(=O)NC2=O)C3=O)c1 (centres unmarked) [Compound A1, 4-(3-amino-5-(tert-butyl)phenoxy)-2-(2,6-dioxopiperidin-3-yl)isoindoline-1,3-dione] | maintained strong CRBN binding | 23 ± 2.8% | lost the degradation activity of GSPT1 |  |  |  |  | 
CC(=O)Nc1cc(Nc2cccc3c2C(=O)N(C2CCC(=O)NC2=O)C3=O)cc(C(C)(C)C)c1 (centres unmarked) [Compound A3, N-(3-(tert-butyl)-5-((2-(2,6-dioxopiperidin-3-yl)-1,3-dioxoisoindolin-4-yl)amino)phenyl)acetamide] |  | 15 ± 21% |  |  |  |  |  | CRBN binding (in words) (His-CRBN/DDB1; listed as SJPYT-231): strongest CRBN binding of all tested compounds; also recorded: maintained strong CRBN binding; also recorded: higher affinity CRBN binder than thalidomide or pomalidomide; GSPT1 degradation (in words) (GSPT1; listed as SJPYT-231): did not affect either PXR or GSPT1 levels; also recorded: lost the degradation activity of GSPT1; PXR protein level (in words) (PXR [5]): did not affect either PXR or GSPT1 levels
COc1ccc(OC)c(-n2nnc(S(=O)(=O)c3ccc(C(C)(C)C)cc3)c2C)c1 [SPA70, reference compound] |  |  |  |  |  |  |  | EC50 (His-CRBN/DDB1): > 3000 nM
